Data reported in ChEMBL document CHEMBL1151630, “Antineoplastic agents, 103. The isolation and structure of hypoestestatins 1 and 2 from the East African Hypoëstes verticillaris” (1984).

System: P388
Assay: Cytotoxicity against mouse P388 cells
Type: functional

COc1ccc2c3c(c4cc(OC)c(OC)cc4c2c1)[C@@H](O)[C@@H]1CCCN1C3 [HYPOESTESTATIN 2]
ED50: 4 ×10⁻⁵ ug/ml
